Assay results: ChEMBL document CHEMBL3091292, “Towards tropomyosin-related kinase B (TrkB) receptor ligands for brain imaging with PET: radiosynthesis and evaluation of 2-(4-[(18)F]fluorophenyl)-7,8-dihydroxy-4H-chromen-4-one and 2-(4-([N-methyl-(11)C]-dimethylamino)phenyl)-7,8-dihydroxy-4H-chromen-4-one” (Bioorg Med Chem, 2013); call rule not given here
Values belong to the compound of their own block, whether it stands above or below them.

Assays:
[1] = Plasma protein binding in rat after 15 mins; format: ADME, cell-free; settings: read-out: PPB (converted)
[2] = Half life in rat plasma by HPLC analysis; format: ADME, cell-free
Brain = test: Biodistribution in Sprague-Dawley rat brain assessed as drug level per body weight at 230 to 876 uCi, iv after 60 mins by PET imaging analysis; format: ADME, organism-based; settings: in vivo, 1 h
[3] = Octanol-phosphate buffered saline partition coefficient, log D of the compound at pH 7.4 by shake-flask method; format: physicochemical
Cerebral cortex = test: Biodistribution in rat cerebral cortex after 65 mins by autoradiography; format: ADME, organism-based; settings: in vivo
Liver = test: Biodistribution in Sprague-Dawley rat liver assessed as drug level per body weight at 230 to 876 uCi, iv after 120 mins by PET imaging analysis; format: ADME, organism-based; settings: in vivo, 2 h
Striatum [4] = test: Biodistribution in rat striatum after 65 mins by autoradiography relative to control in presence of BDNF; format: ADME, organism-based; settings: in vivo
Thalamus [5] = test: Biodistribution in rat thalamus after 65 mins by autoradiography relative to control in presence of BDNF; format: ADME, organism-based; settings: in vivo
Hippocampus [6] = test: Biodistribution in rat hippocampus after 65 mins by autoradiography relative to control in presence of BDNF; format: ADME, organism-based; settings: in vivo
Kidney = test: Biodistribution in Sprague-Dawley rat kidney assessed as drug level per body weight at 230 to 876 uCi, iv after 60 mins by PET imaging analysis; format: ADME, organism-based; settings: in vivo, 1 h
Thalamus [7] = test: Biodistribution in rat thalamus after 65 mins by autoradiography; format: ADME, organism-based; settings: in vivo
Aorta = test: Biodistribution in Sprague-Dawley rat aorta assessed as drug level per body weight at 230 to 876 uCi, iv after 30 mins by PET imaging analysis; format: ADME, organism-based; settings: in vivo, 0.5 h
Rattus norvegicus [8] = test: Biodistribution in Sprague-Dawley rat whole brain assessed as drug level per body weight at 230 to 876 uCi, iv after 30 mins by PET imaging analysis; format: ADME, organism-based; settings: in vivo, 0.5 h
Cerebellum [9] = test: Biodistribution in rat cerebellum after 65 mins by autoradiography relative to control in presence of 7,8-dihydroxyflavone; format: ADME, organism-based; settings: in vivo
Cortex [10] = test: Biodistribution in rat cortex after 65 mins by autoradiography relative to control in presence of 7,8-dihydroxyflavone; format: ADME, organism-based; settings: in vivo
[11] = Drug degradation in rat plasma after 90 mins by HPLC analysis; format: ADME, cell-free; settings: read-out: Drug degradation
Hippocampus [12] = test: Biodistribution in rat hippocampus after 65 mins by autoradiography relative to control in presence of 7,8-dihydroxyflavone; format: ADME, organism-based; settings: in vivo
Hippocampus [13] = test: Biodistribution in rat hippocampus after 65 mins by autoradiography; format: ADME, organism-based; settings: in vivo
Striatum [14] = test: Biodistribution in rat striatum after 65 mins by autoradiography relative to control in presence of 7,8-dihydroxyflavone; format: ADME, organism-based; settings: in vivo
Cerebellum [15] = test: Biodistribution in rat cerebellum after 65 mins by autoradiography; format: ADME, organism-based; settings: in vivo
Cortex [16] = test: Biodistribution in rat cortex after 65 mins by autoradiography relative to control in presence of BDNF; format: ADME, organism-based; settings: in vivo
Cerebellum [17] = test: Biodistribution in rat cerebellum after 65 mins by autoradiography relative to control in presence of BDNF; format: ADME, organism-based; settings: in vivo
Thalamus [18] = test: Biodistribution in rat thalamus after 65 mins by autoradiography relative to control in presence of 7,8-dihydroxyflavone; format: ADME, organism-based; settings: in vivo
Rattus norvegicus [19] = organism: Rattus norvegicus; test: Biodistribution in rat caudate putamen after 65 mins by autoradiography; format: ADME, organism-based; settings: in vivo
[20] = molecular target: BDNF/NT-3 growth factors receptor (Homo sapiens, UniProt Q16620); test: Binding affinity to TrkB receptor extracellular domain (unknown origin) after 10 mins by liquid Scatchard plot analysis
Sequence of BDNF/NT-3 growth factors receptor (Q16620 whole entry, the tested form may be a part): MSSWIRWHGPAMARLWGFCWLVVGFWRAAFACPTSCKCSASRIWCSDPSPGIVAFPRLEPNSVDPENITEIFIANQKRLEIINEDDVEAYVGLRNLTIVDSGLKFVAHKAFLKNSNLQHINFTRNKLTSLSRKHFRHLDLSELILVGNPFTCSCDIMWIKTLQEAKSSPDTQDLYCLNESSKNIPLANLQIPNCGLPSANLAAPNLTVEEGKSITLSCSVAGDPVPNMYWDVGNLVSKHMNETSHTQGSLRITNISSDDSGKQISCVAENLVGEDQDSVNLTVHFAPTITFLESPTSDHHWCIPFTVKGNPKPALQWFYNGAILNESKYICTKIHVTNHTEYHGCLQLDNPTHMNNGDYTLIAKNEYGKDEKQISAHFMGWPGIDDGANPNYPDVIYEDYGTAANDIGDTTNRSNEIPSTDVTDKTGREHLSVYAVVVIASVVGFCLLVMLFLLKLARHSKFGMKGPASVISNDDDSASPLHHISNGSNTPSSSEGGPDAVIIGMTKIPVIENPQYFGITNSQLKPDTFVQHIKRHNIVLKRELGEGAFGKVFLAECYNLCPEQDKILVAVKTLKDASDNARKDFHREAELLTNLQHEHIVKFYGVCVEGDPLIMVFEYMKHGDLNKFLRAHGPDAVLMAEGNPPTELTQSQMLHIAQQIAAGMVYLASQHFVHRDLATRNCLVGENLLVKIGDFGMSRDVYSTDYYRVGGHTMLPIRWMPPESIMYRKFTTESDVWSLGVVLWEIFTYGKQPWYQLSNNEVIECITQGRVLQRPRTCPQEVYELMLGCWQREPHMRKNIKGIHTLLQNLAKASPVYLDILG

fraction unbound at 0.25 h [1]: 0.81 | half-life [2]: 10 min | logD [3]: 2.8
Structure (SMILES): CN([11CH3])c1ccc(-c2cc(=O)c3ccc(O)c(O)c3o2)cc1
SUV (Brain): 0.7

Drug uptake (Cerebral cortex): Active | Drug uptake (Striatum [4]): 14% | Drug uptake (Thalamus [5]): 11% | Drug uptake (Hippocampus [6]): 10% | Drug uptake (Thalamus [7]): Active | Drug uptake (Cerebellum [9]): 23% | Drug uptake (Cortex [10]): 17% | fraction unbound at 0.25 h [1]: 0.76 | metabolised at 1.5 h [11]: 10% | Drug uptake (Hippocampus [12]): 18% | Drug uptake (Hippocampus [13]): Active | Drug uptake (Striatum [14]): 21% | Drug uptake (Cerebellum [15]): Active | Drug uptake (Cortex [16]): 16% | Drug uptake (Cerebellum [17]): 12% | Drug uptake (Thalamus [18]): 19% | Drug uptake (Rattus norvegicus [19]): Active | logD [3]: 2.2
Structure (SMILES): O=c1cc(-c2ccc([18F])cc2)oc2c(O)c(O)ccc12
SUV (Liver): 6.8 | SUV (Kidney): 4.38 | SUV (Aorta): 6.62 | SUV (Rattus norvegicus [8]): 0.64

Kd [20]: 320 nM
Structure (SMILES): O=c1cc(-c2ccccc2)oc2c(O)c(O)ccc12 [7,8-DIHYDROXYFLAVONE]
